In patent EP0328121A1, “Substituted hydrazine mitomycin analogs” (priority 1988, dated 1989):
“And” between values parts separate entries of the source, which are not always exact repeats. Identical values can stand only once. Like-named read-outs stand apart in the source and are kept apart here.

Tested on: P-388 murine leukemia
Assay: Activity against P-388 murine leukemia (P-388 screen, survival of tumor-implanted mice)
Assay type: in vivo, CDF₁ female mice
Details: for minimal effective dose: Mus musculus, P388, ip; for activity against P-388 leukemia (in words): in vivo P-388 leukemia, compared to concurrently run mitomycin C controls
Procedure: The Table contains the results of laboratory tests with CDF₁ female mice implanted intraperitoneally with a tumor inoculum of 10⁶ ascites cells of P-388 murine leukemia and treated with various doses of either a test compound of this invention, or with mitomycin C. The compounds were administered by intraperitoneal injection. Groups of six mice were used for each dosage amount and they were treated with a single dose of the compound on the day of inoculation. A group of ten saline treated control mice was included in each series of experiments. The mitomycin C treated groups were included as a positive control. A 30-day protocol was employed with the mean survival time in days being determined for each group of mice and the number of survivors at the end of the 30-day period being noted.
The results were determined in terms of % T/C which is the ration of the mean survival time of the treated group to the mean survival time of the saline treated control group times 100. The saline treated control animals usually died within nine days. The "maximum effect" in the following Table is expressed as % T/C and the dose giving that effect is given in parentheses. The values in brackets are the values obtained with mitomycin C as the positive control in the same experiment. Thus, a measure of the relative activity of the present substances to mitomycin C can be estimated. A minimum effect in terms of % T/C was considered to be 125. The minimum effective dose (MED) reported in the following Table is that dose given a % T/C of approximately 125 or greater.

[1] = read-out: MED (minimum effective dose, %T/C≧125), P-388 leukemia ip, single ip dose on the day of inoculation, mitomycin C value in brackets from the same experiment

## CO[C@@]12[C@H](COC(N)=O)C3=C(C(O)=C(C)C(=NNC(C)=O)C3=O)N1C[C@@H]1N[C@@H]12 [I, Acetic acid, [1aS-(1aα, 8β, 8aα, 8bα)]-[8-[[(aminocarbonyl)oxy]methyl]-1,1a,2,8,8a,8b-hexahydro-4-hydroxy-8a-methoxy-5-methyl-7-oxoazirino [2′,3′;3,4]pyrrolo[1,2-a]indol-6(7H)-ylidene]hydrazide]
[1]
  minimal effective dose: 1.6 mg/kg
  activity against P-388 leukemia (in words): pronounced activity

## CO[C@@]12[C@H](COC(N)=O)C3=C(C(O)=C(C)C(=NNC(=O)c4ccccc4)C3=O)N1C[C@@H]1N[C@@H]12 [II, Benzoic acid, [1aS-(1aα, 8β, 8aα, 8bα)]-[8-[[(aminocarbonyl)-oxy]methyl]-1,1a,2,8,8a,8b-hexahydro-4-hydroxy-8a-methoxy-5-methyl-7-oxoazirino[2′,3′,4]pyrrolo[1,2-a]indol-6(7H)-ylidene]hydrazide]
[1]
  minimal effective dose: 0.8 mg/kg
  activity against P-388 leukemia (in words): moderately active

## CO[C@@]12[C@H](COC(N)=O)C3=C(C(O)=C(C)C(=NNC(=O)c4cccnc4)C3=O)N1C[C@@H]1N[C@@H]12 [III, 3-Pyridinecarboxylic acid, [1aS-(1aα, 8β, 8aα, 8bα)]-[8-[[(aminocarbonyl)-oxy]methyl]-1,1a,2,8,8a,8b-hexahydro-4-hydroxy-8a-methoxy-5-methyl-7-oxoazirino[2′,3′;3,4,]pyrrolo[1,2-a]indol-6(7H)-ylidene]hydrazide]
[1]
  minimal effective dose: 12.8 mg/kg
  activity against P-388 leukemia (in words): moderately active

## CO[C@@]12[C@H](COC(N)=O)C3=C(C(O)=C(C)C(=NNC(=O)c4cccs4)C3=O)N1C[C@@H]1N[C@@H]12 [IV]
[1]
  minimal effective dose: 0.8 mg/kg
  activity against P-388 leukemia (in words): moderately active

## CCOC(=O)NN=C1C(=O)C2=C(C(O)=C1C)N1C[C@@H]3N[C@@H]3[C@]1(OC)[C@@H]2COC(N)=O [V, Ethyl [1aS-(1aα, 8β, 8aα, 8bα)]-[8-[[(aminocarbonyl)oxy]methyl]-1,1a,2,8,8a,8b-hexahydro-4-hydroxy-8a-methoxy-5-methyl-7-oxoazirino[2′,3′,3,4]pyrrolo[1,2-a]indol-6(7H)-ylidene]hydrazinecarboxylate]
[1]
  minimal effective dose: 0.8 mg/kg
  activity against P-388 leukemia (in words): highest efficacy

## CO[C@@]12[C@H](COC(N)=O)C3=C(C(O)=C(C)C(=NNC(=O)OCc4ccccc4)C3=O)N1C[C@@H]1N[C@@H]12 [VII, Phenylmethyl [1aS-(1aα, 8β, 8aα, 8bα)]-[8-[[(aminocarbonyl)-oxy]methyl]-1,1a, 2,8,8a, 8b-hexahydro-4-hydroxy-8a-methoxy-5-methyl-7-oxoazirino[2′, 3′; 3, 4]pyrrolo[1,2-a]indol-6(7H)-ylidene] hydrazinecarboxylate]
[1]
  minimal effective dose: 1.6 mg/kg
  activity against P-388 leukemia (in words): highest efficacy

## CO[C@@]12[C@H](COC(N)=O)C3=C(C(O)=C(C)C(=NNC(=O)OCC4c5ccccc5-c5ccccc54)C3=O)N1C[C@@H]1N[C@@H]12 [VIII, 9′-Fluorenylmethyl[1aS-(1aα, 8β, 8aα, 8bα)]-[8-[[(aminocarbonyl)oxy]-methyl]-1,1a, 2,8,8a, 8b-hexahydro-4-hydroxy-8a-methoxy-5-methyl-7-oxoazirino[2′, 3′;3,4,]pyrrolo[1,2-a]indol-6(7H)-ylidene]hydrazine carboxylate]
[1]
  minimal effective dose: 0.8 mg/kg
  activity against P-388 leukemia (in words): highest efficacy

## CO[C@@]12[C@H](COC(N)=O)C3=C(C(O)=C(C)C(=NNC(=O)OC(C)(C)C)C3=O)N1C[C@@H]1N[C@@H]12 [VI]
[1]
  minimal effective dose: 0.8 mg/kg

## CO[C@@]12[C@H](COC(N)=O)C3=C(C(=O)C(C)=C(N)C3=O)N1C[C@@H]1N[C@@H]12 [mitomycin C, 7-amino-9α-methoxymitosane, reference compound]
P-388 leukemia ip, single ip dose on the day of inoculation, mitomycin C value in brackets from the same experiment, read-out: MED (minimum effective dose, %T/C≧125)
  minimal effective dose: 1.6 mg/kg
P-388 leukemia ip, single ip dose on the day of inoculation, mitomycin C value in brackets from the same experiment
  MED (minimum effective dose, %T/C≧125): 1.6[1.6] mg/kg per dose and 0.8[0.8] mg/kg per dose
